# Patent US11306062B2, “Forms of fedratinib dihydrochloride” (Johnson Matthey Public Limited Company, priority 2019, dated 2022)
# Legend:
# [1] = Retention of Form A on slurrying in multiple solvents (XRPD); type: physicochemical; conditions: ~30 mg in 0.2 mL of each of water, ethanol, MTBE, IPA, IPAc, 3-methyl-1-butanol, toluene, anisole, acetone, THF, MEK, MIBK, DCM, 1,4-dioxane, 2-butanol, 2-methyl THF, isobutyl acetate, tert-butanol, methyl cyclohexane, CPME; slurried about 3 days at 20° C.
# Procedure: (§1) XRPD patterns are obtained using a Bruker D8 Advance equipped with a Cu Kα radiation source (λ=1.54 Å), a 9-position sample holder and a LYNXEYE super speed detector. Samples are placed on zero-background, silicon plate holders for analysis. One skilled in the art would recognize that the ° 2θ values and the relative intensity values are generated by performing a peak search on the measured data and the d-spacing values are calculated by the instrument from the ° 2θ values using Bragg's equation. One skilled in the art would further recognize that the relative intensity for the measured peaks may vary as a result of sample preparation, orientation and instrument used, for example.
# In another embodiment, Form A of fedratinib diHCl is retained by producing a slurry. […]
# [2] = Dynamic vapor sorption (DVS) humidity cycling, solid analysed by XRPD; type: physicochemical; conditions: start 50% relative humidity, up to 90%, down to 0%, 10% steps, cycle repeated 3 times
# Procedure: as §1
# In another embodiment, amorphous fedratinib diHCl is prepared by: • a) subjecting Form A of fedratinib diHCl to a dynamic vapor sorption method to yield amorphous fedratinib diHCl, wherein the dynamic vapor sorption method comprises exposing the Form A of fedratinib diHCl to a relative humidity of about 50% and adjusting the relative humidity to between about 0-90% with about a 10% increase or decrease in humidity at each step for 3 cycles.
# Form A of fedratinib diHCl is subjected to DVS with initial exposure to 50% relative humidity. The relative humidity is then increased to 90% with a 10% increase in humidity at each step. […]
smiles,measurement,setting,value
"Cc1cnc(Nc2ccc(OCCN3CCCC3)cc2)nc1Nc1cccc(S(=O)(=O)NC(C)(C)C)c1 [Form A of fedratinib diHCl, N-tert-butyl-3-[[5-methyl-2-[4-(2-pyrrolidin-1-ylethoxy)anilino]pyrimidin-4-yl]amino]benzenesulfonamide]",solid form by XRPD after slurry,[1],determined to be Form A of fedratinib diHCl
same,solid form by XRPD after DVS,[2],determined to be amorphous fedratinib diHCl
